Earlier results in US8236817B2, “Polymorphs of 1-cyclopropy1-7-([s,s])-2,8-diazadicyclo[4.3.0]non-8-yl)-6-fluoro-1,4-dihydro-8-methoxy-4-oxo-3-quinoline carboxylic acid hydrochloride and methods for the preparation thereof” (Chemi S.p.A., priority 2003, dated 2012).

Conditions: solid form exposed to atmosphere; stated in U.S. Pat. No. 5,849,752

hygroscopicity: absorbs water from the atmosphere
Structure (SMILES): COc1c(N2C[C@@H]3CCCN[C@@H]3C2)c(F)cc2c(=O)c(C(=O)O)cn(C3CC3)c12.Cl [anhydrous form]
